Test results as given in ChEMBL document CHEMBL1201862, “PubChem BioAssay data set” (2004).
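Exposure lasted 48 hours, with cells grown in 96-well plates and compounds tested at five concentrations. At the GI50, growth is halved.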 Activity calls are given as the source filed them. No stated cut-off is given here; in the data, active = GI50 up to about 1.1 µM and inactive = higher.

Columns and labels:
Assay in all cases: NCI-60 cell line screen, 48 h
LOX IMVI = tested on: LOX IMVI
COLO 205 = tested on: COLO 205
U-251 = tested on: U-251
Hs-578T = tested on: Hs-578T
HCC 2998 = tested on: HCC 2998
BT-549 = tested on: BT-549
UACC-62 = tested on: UACC-62
SF-268 = tested on: SF-268
MOLT-4 = tested on: MOLT-4
NCI-H460 = tested on: NCI-H460
HOP-92 = tested on: HOP-92
A549 = tested on: A549
OVCAR-8 = tested on: OVCAR-8
MDA-MB-435 = tested on: MDA-MB-435
IGROV-1 = tested on: IGROV-1
NCI-H23 = tested on: NCI-H23
CAKI-1 = tested on: CAKI-1
DU-145 = tested on: DU-145
RPMI-8226 = tested on: RPMI-8226
NCI-H522 = tested on: NCI-H522

Compound	GI50 (LOX IMVI)	GI50 (COLO 205)	GI50 (U-251)	GI50 (Hs-578T)	GI50 (HCC 2998)	GI50 (BT-549)	GI50 (UACC-62)	GI50 (SF-268)	GI50 (MOLT-4)	GI50 (NCI-H460)	GI50 (HOP-92)	GI50 (A549)	GI50 (OVCAR-8)	GI50 (MDA-MB-435)	GI50 (IGROV-1)	GI50 (NCI-H23)	GI50 (CAKI-1)	GI50 (DU-145)	GI50 (RPMI-8226)	GI50 (NCI-H522)
COc1cc2c(cc1OC)C1CN3CCCC3C(O)C1c1cc(OC)c(OC)cc1-2 (stereo not given)	> 100 µM (inactive)	> 100 µM (inactive)	> 100 µM (inactive)	> 100 µM (inactive)	> 100 µM (inactive)	> 100 µM (inactive)	> 100 µM (inactive)	> 100 µM (inactive)	> 100 µM (inactive)	> 100 µM (inactive)	> 100 µM (inactive)	> 100 µM (inactive)	> 100 µM (inactive)	> 100 µM (inactive)	> 100 µM (inactive)	> 100 µM (inactive)	> 100 µM (inactive)	> 100 µM (inactive)	> 100 µM (inactive)	> 100 µM (inactive)
O=C1CC(=O)c2c(N3CCCC3)sc(N3CCCC3)c21	> 100 µM (inactive)	> 100 µM (inactive)	> 100 µM (inactive)	> 100 µM (inactive)	> 100 µM (inactive)	> 100 µM (inactive)	> 100 µM (inactive)	> 100 µM (inactive)	59 µM (inactive)	> 100 µM (inactive)	> 100 µM (inactive)	> 100 µM (inactive)	> 100 µM (inactive)	> 100 µM (inactive)	> 100 µM (inactive)	> 100 µM (inactive)	> 100 µM (inactive)	> 100 µM (inactive)	> 100 µM (inactive)	57.4 µM (inactive)
NNC(=O)CSc1nnc(CCCCCCCCc2nnc(SCC(=O)NN)o2)o1	> 100 µM (inactive)	> 100 µM (inactive)	> 100 µM (inactive)	> 100 µM (inactive)	> 100 µM (inactive)	> 100 µM (inactive)	> 100 µM (inactive)	> 100 µM (inactive)	> 100 µM (inactive)	> 100 µM (inactive)	> 100 µM (inactive)	> 100 µM (inactive)	> 100 µM (inactive)	> 100 µM (inactive)	> 100 µM (inactive)	> 100 µM (inactive)	> 100 µM (inactive)	> 100 µM (inactive)	> 100 µM (inactive)	> 100 µM (inactive)
N#Cc1c2c(c(N)oc1=O)C(c1ccccc1)CC(=O)N2 (stereo not given)	> 100 µM (inactive)	> 100 µM (inactive)	> 100 µM (inactive)	> 100 µM (inactive)	> 100 µM (inactive)	> 100 µM (inactive)	> 100 µM (inactive)	> 100 µM (inactive)	> 100 µM (inactive)	> 100 µM (inactive)	> 100 µM (inactive)	> 100 µM (inactive)	> 100 µM (inactive)	> 100 µM (inactive)	> 100 µM (inactive)	> 100 µM (inactive)	> 100 µM (inactive)	> 100 µM (inactive)	> 100 µM (inactive)	> 100 µM (inactive)
Nc1nc(Cl)c(N)c(NCC2(CO)CCC(CCc3ccccc3)C2)n1 (stereo not given)	11.5 µM (inactive)	9.93 µM (inactive)	14.4 µM (inactive)	21.1 µM (inactive)	16.9 µM (inactive)	11.1 µM (inactive)	12.1 µM (inactive)	15.8 µM (inactive)	0.759 µM (active)	12.6 µM (inactive)	19.3 µM (inactive)	11.8 µM (inactive)	14 µM (inactive)	12.8 µM (inactive)	22.8 µM (inactive)	0.0435 µM (active)	1.47 µM (inactive)	21.4 µM (inactive)	14.3 µM (inactive)	10.4 µM (inactive)
